Data taken from the supplement of paper PMC10307832.

Key:
Assay in all cases: relative viability (nuclei count vs DMSO), 5 days (fraction); higher = more cells survive
[1] = compound: CCn1c(-c2nonc2N)nc2cnc(Oc3cccc(NC(=O)c4ccc(OCCN5CCOCC5)cc4)c3)cc21 + COc1cc2c(Oc3ccc(NC(=O)C4(C(=O)Nc5ccc(F)cc5)CC4)cc3F)ccnc2cc1OCCCN1CCOCC1 [Foretinib] (partner 0.25 µM)
Outline: (§1)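 Cells from lung cancer lines were seeded into 1536-well plates and, one day later, dosed by pin tool. Treatments were either a single drug or a fixed dose of an anchor drug with five library-drug doses (not always all listed) in √10 steps. After 5 days, nuclei were stained in a one-step fixation (final 0.05% Triton X-100, 1% formaldehyde, 1 ug/ml Hoechst) and counted on 4× images, and relative viability is the treated-to-vehicle nuclei ratio, as the median of duplicate plates.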

Mirin + OSI-027 = compound: N=C1NC(=O)/C(=C/c2ccc(O)cc2)S1 [Mirin] + COc1cccc2cc(-c3nc([C@H]4CC[C@H](C(=O)O)CC4)n4ncnc(N)c34)[nH]c12 [OSI-027] (partner 0.5 µM)
Outline: as §1

[2] = compound: CCC1=CN=CN=C1N2CCN(CC2)CC3=NC4=C(N3)C=C(C=C4)C(F)(F)F + CCNC(=O)c1noc(-c2cc(C(C)C)c(O)cc2O)c1-c1ccc(CN2CCOCC2)cc1 [Luminespib] (partner 0.01 µM)
Outline: as §1

[3] = compound: CCC1=CN=CN=C1N2CCN(CC2)CC3=NC4=C(N3)C=C(C=C4)C(F)(F)F + Nc1nc2[nH]cc(CCc3ccc(C(=O)N[C@@H](CCC(=O)O)C(=O)O)cc3)c2c(=O)[nH]1 [Pemetrexed] (partner 0.2 µM)
Outline: as §1

Row | Cell Line | relative viability ([1]; first compound 0.04 µM) | relative viability ([1]; first compound 0.1265 µM) | relative viability ([1]; first compound 0.4 µM) | relative viability ([1]; first compound 1.265 µM) | relative viability ([1]; first compound 4 µM) | relative viability (Mirin + OSI-027; first compound 0.25 µM) | relative viability (Mirin + OSI-027; first compound 0.7906 µM) | relative viability (Mirin + OSI-027; first compound 2.5 µM) | relative viability (Mirin + OSI-027; first compound 7.906 µM) | relative viability (Mirin + OSI-027; first compound 25 µM) | relative viability ([2]; first compound 0.04 µM) | relative viability ([2]; first compound 1.265 µM) | relative viability ([2]; first compound 4 µM) | relative viability ([3]; first compound 0.04 µM) | relative viability ([3]; first compound 0.1265 µM) | relative viability ([3]; first compound 0.4 µM) | relative viability ([3]; first compound 1.265 µM) | relative viability ([3]; first compound 4 µM) | relative viability ([2]; first compound 0.1265 µM) | relative viability ([2]; first compound 0.4 µM)
1 | ABC-1 | 0.804 | 1.29 | 1.15 | 0.802 | 0.417 | 0.442 | 0.346 | 0.484 | 0.467 | 0.225 | 0.636 | 0.504 | 0.527 | – | – | – | – | – | – | –
2 | IA-LM | 1.65 | 1.39 | 1.13 | 1.06 | 0.898 | – | – | – | – | – | – | – | – | – | – | – | – | – | – | –
3 | NCI-H441 | 1.12 | 1.04 | – | 0.859 | 0.79 | 0.673 | 0.6 | 0.598 | 0.473 | 0.602 | 0.387 | 0.358 | 0.396 | 0.231 | 0.274 | 0.274 | 0.204 | 0.265 | 0.345 | 0.315
4 | NCI-H1792 | – | – | – | – | – | 0.724 | 0.746 | 0.745 | – | 0.634 | 0.507 | – | 0.42 | 0.773 | 0.736 | 0.82 | – | 0.665 | 0.496 | 0.427
5 | LXF-289 | 1.06 | 1.02 | 0.982 | 0.936 | 0.882 | 0.79 | 0.701 | 0.764 | 0.715 | 0.763 | 0.701 | 0.63 | 0.676 | 0.938 | 0.777 | 0.915 | 0.977 | 0.788 | 0.64 | 0.685
6 | HCC-827 | 1.11 | 1.05 | 0.996 | 0.877 | 0.751 | 0.785 | 0.71 | 0.748 | 0.737 | 0.744 | 0.687 | – | 0.587 | 0.268 | 0.221 | 0.276 | 0.242 | 0.278 | 0.588 | 0.544
7 | EMC-BAC-2 | 0.988 | 1 | 0.973 | 0.644 | 0.565 | 0.389 | 0.378 | 0.337 | 0.307 | 0.312 | 1.24 | – | 1.14 | 0.436 | 0.43 | 0.455 | 0.418 | 0.469 | 1.19 | 1.2
8 | NCI-H596 | 0.961 | 0.873 | 0.814 | 0.742 | 0.767 | 0.826 | 0.747 | 0.842 | 0.587 | 0.746 | 1.25 | – | 1.03 | 0.52 | 0.506 | 0.483 | 0.438 | 0.444 | 1.02 | 0.814
9 | NCI-H1755 | 0.907 | 0.957 | 0.916 | 0.619 | 0.645 | 0.686 | 0.75 | 0.662 | 0.687 | 0.766 | 0.458 | 0.338 | 0.308 | 0.425 | 0.453 | 0.754 | 0.411 | 0.454 | 0.483 | 0.311
10 | NCI-H1993 | 0.84 | 0.765 | 0.659 | 0.795 | 0.723 | 0.549 | – | 0.578 | 0.496 | 0.539 | 0.852 | 0.772 | 0.816 | 0.597 | 0.644 | 0.575 | 0.513 | 0.674 | 0.802 | 0.836
11 | NCI-H2347 | 1.08 | 1.27 | 1.26 | 0.459 | 0.585 | 0.459 | 0.426 | 0.4 | 0.476 | 0.36 | 0.346 | 0.228 | 0.44 | 0.422 | 0.408 | 0.434 | 0.373 | 0.442 | 0.415 | 0.372
12 | SW 900 | 1.04 | 0.977 | 0.91 | 0.995 | 0.886 | 0.487 | 0.597 | 0.701 | 0.434 | 0.75 | 0.165 | 0.177 | 0.195 | 0.439 | 0.464 | 0.495 | – | 0.458 | 0.194 | 0.158
13 | NCI-H1437 | 1.26 | 1.31 | 1.23 | 1.06 | 0.865 | 0.853 | 0.895 | 0.948 | 0.832 | 0.643 | 1.07 | 1.01 | 0.907 | 0.296 | 0.295 | 0.306 | 0.35 | 0.224 | 0.995 | 0.964
14 | NCI-H1299 | 1.03 | 1.06 | 0.969 | 0.858 | 0.789 | – | – | – | – | – | – | – | – | – | – | – | – | – | – | –
15 | NCI-H727 | 1.08 | 0.888 | 0.852 | 1.15 | 1.15 | 0.833 | 0.596 | 0.529 | 0.586 | 0.877 | 0.423 | – | 0.426 | – | – | – | – | – | 0.362 | 0.306
16 | Calu-6 | 1.03 | 0.832 | 0.84 | 0.568 | 0.507 | – | – | – | – | – | – | – | – | – | – | – | – | – | – | –
17 | NCI-H1703 | 0.312 | 0.326 | 0.332 | 0.337 | 0.264 | – | – | – | – | – | – | – | – | – | – | – | – | – | – | –
18 | EBC-1 | 0.0933 | 0.0951 | 0.0949 | 0.0808 | 0.0597 | – | – | – | – | – | – | – | – | – | – | – | – | – | – | –
19 | HCC-44 | – | – | – | – | – | 0.441 | 0.491 | 0.483 | 0.428 | 0.485 | 1.02 | 0.88 | 1.07 | 0.635 | 0.63 | 0.684 | 0.685 | 0.644 | 1.01 | 1.03
20 | NCI-H1648 | – | – | – | – | – | 0.279 | 0.276 | 0.232 | 0.261 | 0.26 | – | – | – | 0.614 | – | – | 0.769 | 0.683 | – | –
21 | NCI-H522 | – | – | – | – | – | 0.705 | 0.513 | 0.762 | 0.688 | 0.62 | 1.16 | 0.867 | 0.987 | 0.855 | 1.2 | 0.892 | 0.876 | 0.958 | 1.24 | 1.15
22 | A549 | 1.19 | 0.985 | 1.06 | 0.246 | 0.12 | – | – | – | – | – | – | – | – | – | – | – | – | – | – | –
23 | HCC-78 | 0.596 | 0.584 | – | 0.64 | 0.713 | 0.37 | 0.366 | 0.419 | 0.292 | 0.349 | – | – | – | 0.913 | 0.829 | 0.905 | 0.898 | 0.952 | – | –
